Read-outs that look alike come from different tables or passages of the source.
What was measured:
[1] = tested on: acetic acid-induced colitis in rats; assay: Prevention of acetic acid-induced colitis in a rat model; format: in vivo, Sprague-Dawley rats; settings: DFO 20 mg/kg 30 minutes before 4% acetic acid (FIG. 1)
Method: Induction of colitis. Male Sprague-Dawley rats (250-350 g) were anesthetized with sodium pentobarbital, 55 mg/kg intraperitoneally. The abdomen was shaved and prepared for surgery. A midline incision was made, and the cecum and proximal colon were exteriorized. A reversible suture was placed at the junction of the cecum and proximal colon. The colon was rinsed with saline (10 ml), and the fluid and intestinal contents were gently expressed out the rectum. A gum-based rectal plug was inserted. The compound of interest, or distilled water in the control animals (2 ml), was injected intracolonically just distal to the ligature. The cecum and proximal colon were returned to the abdominal cavity; the compound was allowed to remain in the gut for 30 min. Then, the cecum and proximal colon were exteriorized again. The rectal plug was removed, and the drug was gently expressed out of the colon. […] The entire length of the colon was removed and assessed for damage both densitometrically and biochemically.
Quantitation of acetic acid-induced colitis. Gross damage was quantitated using Photoshop-based image analysis (version 5.0, Adobe Systems, Mountain View, Calif., USA) on an Apple iMac computer. […] The cursor was then placed on the histogram, the color range determined in an earlier step was selected, and the number of pixels encompassing that range and the percent damage were quantitated automatically.

[2] = Concentration of DFT analogs in rat plasma and cerebrospinal fluid after PO or SC dose; format: in vivo, Sprague-Dawley rats; settings: rats, PO 300 μmol/kg, monosodium salt
Method: Adult male Sprague-Dawley rats (450-500 g) were used. The rats were not fasted. A sample solution of a monosodium salt of (S)-4′-(HO)-DADFT-norPE (III-A) or (S)-4′-(HO)-DADFT-PE (IV-A) was administered to the rats at an oral or subcutaneous dose of 300 μmol/kg. Concentrations of the DFT analogs in the plasma and cerebrospinal fluid of the rats were measured at 0.5 hour, 1 hour, 2 hours, 4 hours, and 8 hours post administration.

[3] = Apparent partition coefficient (LogPapp) of DFT analogs; format: physicochemical
[4] = Concentration of DFT analogs in rat plasma and eyes after SC dose, rats perfused with saline; format: in vivo; settings: SC 300 μmol/kg, one hour post dose; for concentration at 1 h: rat, plasma, rats perfused with saline; for Concentration in the eye: rats perfused with saline (about 100 ml, 5 minutes), entire eye
Method: Rats were anesthetized with ketamine/xylazine about 50 minutes after dosing. Blood of the rats was collected via cardiac puncture into vacutainer tubes containing buffered sodium citrate one hour post dose. The rats' abdomen and thorax were opened, and a portion of the sternum/ribs was removed. A 19-gauge needle was inserted into the left ventricle of the rats, and the right atrium was cut. About 100 ml of saline was perfused transcardially for five minutes. The perfusion was stopped, and the rats' eyes were removed. Any extraneous tissue was trimmed and discarded. The eyes were frozen. The entire eye was then processed and assessed for the concentration of the DFT analog. The whole blood was centrifuged, and the plasma was separated and frozen until the concentration of the DFT analog was determined.

[5] = Concentration of DFT analogs in rat plasma and eyes after SC dose, rats not perfused; format: in vivo; settings: non-perfused rats, SC 300 μmol/kg, one hour post dose; for Concentration in the eye: entire eye; for concentration at 1 h: rat, plasma
Method: Rats were anesthetized with ketamine/xylazine about 50 minutes after dosing. Blood of the rats was collected via cardiac puncture into vacutainer tubes containing buffered sodium citrate one hour post dose. The rats' eyes were removed. Any extraneous tissue was trimmed and discarded. The eyes were frozen. The entire eye was then processed and assessed for the concentration of the DFT analog. The whole blood was centrifuged, and the plasma was separated and frozen until the concentration of the DFT analog was determined.

[6] = male, Sprague-Dawley, rat, cerebrospinal fluid, read-out: Concentration in cerebrospinal fluid
[7] = male, Sprague-Dawley, rat, plasma, read-out: Concentration in plasma
[8] = male, Sprague-Dawley, rat, plasma, 1 h, read-out: Concentration in plasma
[9] = male, Sprague-Dawley, rat, plasma, 2 h
[10] = male, Sprague-Dawley, rat, plasma, 4 h, read-out: Concentration in plasma

concentration at 0.5 h [2, 6] [µM]	concentration at 1 h ([2]; male, Sprague-Dawley, rat, cerebrospinal fluid, 1 h, read-out: Concentration in cerebrospinal fluid) [µM]	concentration at 4 h ([2]; male, Sprague-Dawley, rat, cerebrospinal fluid, 4 h, read-out: Concentration in cerebrospinal fluid) [µM]	concentration at 8 h ([2]; male, Sprague-Dawley, rat, cerebrospinal fluid, 8 h) [nM]	concentration at 0.5 h [2, 7] [µM]	concentration at 1 h [2, 8] [µM]	concentration at 2 h [2, 9] [µM]	concentration at 4 h [2, 10] [µM]	Concentration in cerebrospinal fluid ([2]; 2 h)	Concentration in plasma ([2]; 8 h)	LogPapp [3]	concentration at 1 h [4] [µM]	Concentration in the eye [4]	Concentration in the eye [5]	concentration at 1 h [5] [µM]	Concentration in cerebrospinal fluid ([2]; 1 h)	Concentration in cerebrospinal fluid ([2]; 4 h)	Concentration in cerebrospinal fluid ([2]; 8 h)	SMILES	Prevention of acetic acid-induced colitis [1]
																		CC(=O)N(O)CCCCCNC(=O)CCC(=O)N(O)CCCCCNC(=O)CCC(=O)N(O)CCCCCN [DFO, desferrioxamine]	prevent acetic acid-induced colitis in rats
8.07 ± 3.09	5.7 ± 2.74	0	0	424 ± 60	219 ± 19	30 ± 5	2 ± 0.4	2.32 (only 1 out 3 animals μM	trace	−0.89	218 ± 51	17.2 ± 5.5 nmol/g wet weight of the eye	25.8 ± 6.0 nmol/g wet weight of the eye	218 ± 16				COCCOCCOc1ccc(C2=N[C@@](C)(C(=O)O)CS2)c(O)c1 [III-A, (S)-4′-(HO)-DADFT-norPE]	
2.14 ± 1.01				142 ± 57	64 ± 7	32 ± 20	2 ± 0.5	trace	trace	−1.10					trace	trace	trace	COCCOCCOCCOc1ccc(C2=N[C@@](C)(C(=O)O)CS2)c(O)c1 [IV-A, (S)-4′-(HO)-DADFT-PE]	
										−0.89	663 ± 42	29.7 ± 4.3 nmol/g wet weight of the eye	37.8 ± 4.3 nmol/g wet weight of the eye	701 ± 32				COc1ccc(C2=N[C@@H](C(=O)O)CS2)c(O)c1 [V-A]	

Source: US11931346B2, “Uses of 4′-desferrithiocin analogs” (University of Florida Research Foundation, Incorporated, priority 2011, dated 2024)
